# Test results as given in patent US20120142730A1 (priority 2010, published 2012).
# Tested on: subjects with relapsing remitting multiple sclerosis (RRMS)
# Assay: ALLEGRO phase III trial: MRI endpoints (lesions, brain volume, MTR, 1H-MRS)
# Type: in vivo, human
# Design: key to BA from M12 to M24: percent change of brain volume (SIENA); Change in average MTR of T2 visible lesions / T2 volume / Hypointense T1 volume / GdE volume: unit not given here
# Conditions: for BA at month 12, reduction / BA (brain atrophy, percent brain volume change) at month 12: baseline to 12 months
# Description: Eligible subjects were equally randomized 1:1 into one of the following treatment arms: • 1. […] 21, 2007 (see, page 10, line 5 to page 11, line 3). • 2. Matching placebo for laquinimod arm: one capsule is administered once daily. MRI related secondary endpoints were the cumulative number of GdE lesions at months 12 and 24; and the cumulative number of new T2 lesions (relative to previous scan) at months 12 and 24; MRI exploratory endpoints included percent change of brain volume using SIENA.^10 Additional MRI methodological details are as follows: In all patients, MRI scans were performed at 0, 12, and 24 months. Before a site could enrol study participants they were required to image a volunteer patient with definite MS twice with repositioning according to a strict study imaging protocol using scanners with a minimum field strength of 1.5T. Fast/turbo spin echo (repetition time [TR]=2200-3500 ms, echo time [TE]=14-50/90-120 ms, echo train length=2-7, slice thickness=3 mm, and contiguous axial slices= • 44) sequences were used to obtain proton density and T2-weighted images. High resolution pre-contrast 3D T1-weighted sequences (TR=8-15 ms, TE=3-5 ms, inversion time=1.1 s, number of slices 160, slice thickness 1.2 mm, flip angle [FA]=10-15, orientation sagittal) were acquired for quantification of brain atrophy. Finally, T1-weighted images (1.5 T scanners: conventional spin echo sequence; TR=600-650 ms, TE=10-20 ms, slice thickness=3 mm, and contiguous axial slices=44; 3.0 T scanners: 3D sequence; TR=5-9 ms, TE=2-5 ms, FA=15, slice thickness=3 mm, and contiguous axial slices=44) were obtained 5 minutes after injection of 0.1 mmol/kg of gadolinium. A series of axial, coronal, and sagittal images was obtained to create an axial reference scan for subsequent careful repositioning of each patient at the follow-up session. Axial slices were positioned to run parallel to a line joining the most inferioanterior and inferioposterior parts of the corpus callosum. Image quality was reviewed at the MRI-AC using predetermined criteria. The identification of GdE and T2-hyperintense lesions was done by consensus of two experienced observers. The number of total and new GdE lesions and new/enlarging T2-hyperintense lesions were counted. The identified lesions were then outlined by trained technicians using a semiautomated segmentation technique based on local thresholding (Jim 4.0; […] System, Leicester, UK) and lesion volumes were calculated automatically. Percentage brain volume changes and cross-sectional normalized brain volumes were measured on […] T1-weighted images, with Structural Image Evaluation of Normalized Atrophy (SIENA) software and a cross-sectional method ([…]) (available from the FMRIB Software Library, Oxford University, Oxford, UK; http://www.fmrib.ox.ac.uk/analysis/research/[…]). Analyses of the secondary MRI endpoints of the cumulative number of GdE and new/enlarging T2 lesions at 12 and 24 months involved a baseline-adjusted negative binomial regression with an “offset” employing the log of the relative exposure to adjust for early-terminated patients. The model included as covariates the number of enhancing lesions at baseline, and country or geographical region. In the case of new/enlarging T2 lesion analysis, the baseline T2 lesion volume was also added. […] The analysis of the brain atrophy endpoint involved a baseline-adjusted analysis of covariance (ANCOVA). The covariates were the number of GdE lesions at baseline and the country or region. The exploratory endpoints were all analyzed at a significance level of 5%. Secondary endpoints of the ALLEGRO trial included disease activity as measured by MRI, including counts of Gadolinium enhancing T1 lesions and new-T2 hyperintense lesions. […] Conventional MRI scans for new T1 hypointense lesions, and brain volume using SIENA were performed at baseline, 12 and 24 months. […]
# [1] = 0.6 mg daily oral vs placebo, listed as laquinimod
# [2] = 0.6 mg daily oral, listed as laquinimod
# [3] = post-hoc, not naïve, vs placebo
smiles,measurement,setting,value
"CCN(C(=O)c1c(O)c2c(Cl)cccc2n(C)c1=O)c1ccccc1 [Laquinimod, laquinimod]","Cumulative new Hypointense T1 lesions months 12 + 24, mean",0.6 mg daily oral,1.468
same,"Cumulative number of GdE lesions at months 12 and 24, mean",0.6 mg daily oral,1.332
same,"Cumulative number of GdE lesions at months 12 and 24, median",0.6 mg daily oral,0.00
same,"Cumulative number of new/enlarging T2 lesions at 12 and 24 months, mean",0.6 mg daily oral,5.032
same,"Cumulative new Hypointense T1 lesions months 12 + 24, reduction",0.6 mg daily oral vs placebo,27% reduction
same,"Cumulative number of new/enlarging T2 lesions at 12 and 24 months, reduction",0.6 mg daily oral vs placebo,30% reduction
same,"Percent change of brain volume baseline to month 24, reduction in brain atrophy",0.6 mg daily oral vs placebo,32.8% reduction
same,"Percent change of brain volume from baseline to month 24, adjusted mean difference",0.6 mg daily oral vs placebo,0.426
same,"BA at month 12, reduction",0.6 mg daily oral vs placebo,53% reduction
same,"BA at month 12, reduction",[1],51.7%
same,"Cumulative new Hypointense T1 lesions months 12 + 24, reduction",[1],26.7%
same,"Cumulative number of new/enlarging T2 lesions at 12 and 24 months, reduction",[1],30%
same,"Percent change of brain volume baseline to month 24, reduction in brain atrophy",[1],32.8%
same,"Percent change of brain volume from baseline to month 24, adjusted mean change","0.6 mg daily oral, SIENA",−0.871%
same,"BA (brain atrophy, percent brain volume change) at month 12",0.6 mg daily oral,−0.358%
same,"BA (brain atrophy, percent brain volume change) at month 12",[2],−0.358%
same,"Cumulative new Hypointense T1 lesions months 12 + 24, mean",[2],1.47
same,Adjusted mean change in NAA/Cr from baseline to month 24,"1H-MRS subgroup, n=12",0.087
same,Change in average MTR of T2 visible lesions,"MT MRI subgroup, n=43",−0.005
same,Change in mean MTR whole brain from baseline to last observed value (LOV),"MT MRI subgroup, n=44",+0.045
same,"Change in mean MTR whole brain baseline to LOV, difference from placebo","MT MRI subgroup, p=0.0180",0.483
same,"Change in average MTR of T2 visible lesions, difference from placebo","MT MRI subgroup, p=0.1007",0.330
same,"Hypointense T1 volume, change BL to M24",baseline to month 24,7%^
same,"T2 volume, change BL to M24",baseline to month 24,11.5%^
same,Hypointense T1 volume,month 12,2.805
same,T2 volume,month 12,8.005
same,"Hypointense T1 volume, effect","month 12, vs placebo",~1%
same,"T2 volume, effect","month 12, vs placebo",5%
same,Hypointense T1 volume,month 24,2.829
same,T2 volume,month 24,8.111
same,"Hypointense T1 volume, effect","month 24, vs placebo",~1%
same,"T2 volume, effect","month 24, vs placebo",5%
same,"BA for pts with all scans, change BL to M12",post-hoc,−0.337
same,"BA for pts with all scans, change BL to M24",post-hoc,−0.855
same,BA from M12 to M24,post-hoc,−0.548
same,% BV change M24,"post-hoc, GdE = 0",−0.859%
same,"% BV change M24, reduction","post-hoc, GdE = 0, vs placebo",30% reduction
same,% BV change M24,"post-hoc, GdE > 0",−0.881%
same,"% BV change M24, reduction","post-hoc, GdE > 0, vs placebo",37% reduction
same,GdE counts,"post-hoc, M12",0.731
same,GdE lesion free,"post-hoc, M12",69% ^
same,GdE volume,"post-hoc, M12",1.058
same,New T2 lesion #,"post-hoc, M12",2.81
same,New-T1 Hypointense Lesions,"post-hoc, M12",1.074
same,T1 Hypointense Lesion free,"post-hoc, M12",56.3% ^
same,T2 lesion free,"post-hoc, M12",30.8% ^
same,"GdE counts, reduction","post-hoc, M12, vs placebo",36% reduction
same,"GdE lesion free, effect on odds","post-hoc, M12, vs placebo",49% odds
same,"GdE volume, effect","post-hoc, M12, vs placebo",4.5%
same,"New T2 lesion #, effect","post-hoc, M12, vs placebo",33.5%
same,"New-T1 Hypointense Lesions, reduction","post-hoc, M12, vs placebo",27% reduction
same,"T1 Hypointense Lesion free, effect on odds","post-hoc, M12, vs placebo",28% odds
same,"T2 lesion free, effect on odds","post-hoc, M12, vs placebo",39% odds
same,GdE counts,"post-hoc, M24",0.482
same,GdE lesion free,"post-hoc, M24",74.5% ^
same,GdE volume,"post-hoc, M24",1.045
same,New T2 lesion #,"post-hoc, M24",4.45
same,New-T1 Hypointense Lesions,"post-hoc, M24",1.230
same,T1 Hypointense Lesion free,"post-hoc, M24",52.8% ^
same,T2 lesion free,"post-hoc, M24",20.3% ^
same,"GdE counts, reduction","post-hoc, M24, vs placebo",39% reduction
same,"GdE lesion free, effect on odds","post-hoc, M24, vs placebo",72% odds
same,"GdE volume, effect","post-hoc, M24, vs placebo",4.7%
same,"New T2 lesion #, effect","post-hoc, M24, vs placebo",31.5%
same,"New-T1 Hypointense Lesions, reduction","post-hoc, M24, vs placebo",32% reduction
same,"T1 Hypointense Lesion free, effect on odds","post-hoc, M24, vs placebo",47% odds
same,"T2 lesion free, effect on odds","post-hoc, M24, vs placebo",40% odds
same,% BVC BL to M24,"post-hoc, MRI free NO",−1.001%
same,"% BVC BL to M24, effect","post-hoc, MRI free NO, vs placebo",65.5%
same,% BVC BL to M24,"post-hoc, MRI free YES",−0.533%
same,"% BVC BL to M24, effect","post-hoc, MRI free YES, vs placebo",45.5%
same,% BV change by previous medications,"post-hoc, naïve",−0.82%
same,Cum # T1 GdE by previous medications,"post-hoc, naïve",1.135
same,Cum New T2 by previous medications,"post-hoc, naïve",4.967
same,T1 hypointense by previous medications,"post-hoc, naïve",1.585
same,"% BV change by previous medications, reduction","post-hoc, naïve, vs placebo",38% reduction
same,"Cum # T1 GdE by previous medications, reduction","post-hoc, naïve, vs placebo",42% reduction
same,"Cum New T2 by previous medications, reduction","post-hoc, naïve, vs placebo",33% reduction
same,"T1 hypointense by previous medications, reduction","post-hoc, naïve, vs placebo",28% reduction
same,Cum # T1 GdE by previous medications,"post-hoc, not naive",1.746
same,"Cum # T1 GdE by previous medications, reduction","post-hoc, not naive, vs placebo",32% reduction
same,% BV change by previous medications,"post-hoc, not naïve",−0.954%
same,Cum New T2 by previous medications,"post-hoc, not naïve",5.075
same,T1 hypointense by previous medications,"post-hoc, not naïve",1.217
same,"% BV change by previous medications, reduction",[3],23% reduction
same,"Cum New T2 by previous medications, reduction",[3],24% reduction
same,"T1 hypointense by previous medications, reduction",[3],25% reduction
same,"BA for pts with all scans, change BL to M12, effect","post-hoc, vs placebo",60%
same,"BA for pts with all scans, change BL to M24, effect","post-hoc, vs placebo",57%
